Reference: patent publication US20120316105A1, “Polymyxin Derivates Useful As Antibacterial Agents” (priority 2011, published 2012)
Bridge positions count the residues as written; N and C are the ends. Square brackets hold non-standard residues; d marks the D form. Peptide text beside a SMILES is read from it. * marks the point of attachment. X13 = N#Cc1ccc(-c2cc(C(=O)*)ccc2F)cc1; X17 = N#Cc1ccc(-c2cccc(C(=O)*)c2)cc1; X19 = N#Cc1ccc(-c2cccc(C(=O)*)c2)nc1; X2 = N#Cc1ccc(-c2cc(C(=O)*)ccn2)cc1F; X22 = COc1cccc(-c2cc(C(=O)*)ccn2)c1; X25 = O=C(c1ccc(Cl)c(-c2ccccn2)c1)*; X37 = COc1cc(C(=O)*)cc(-c2ccccc2)n1; X24 = COc1ccc(-c2ccccc2)cc1C(=O)*; X16 = O=C(c1ccc(-c2ccccc2)nc1)*; X27 = O=C(c1cncc(-c2ccccc2)c1)*; X8 = O=C(c1cc(-c2ccccc2)ccc1F)*; Dab = NCC[C@H](N)C(=O)O; Dap = NC[C@H](N)C(=O)O

Experiments:
[1] = Cytotoxicity assay (LDH release), hRPTEC; format: cell-based, human; settings: human
Summary of the method: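 hRPTEC grown 72 h in REGM, then exposed to compounds at 100, 67, 44, 30, 20 and 13 micromolar for 24 h at 37° C, 5% CO2. LDH released into supernatant measured; TC50 (micromolar) derived. Compounds tested as trifluoroacetate salts unless otherwise noted.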

[2] = test system: AB-1649, polymyxin-resistant clinical isolate of Acinetobacter baumannii; format: cell-based; settings: AB-1649, polymyxin-resistant clinical isolate of
Summary of the method: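 MIC and MBC were measured by CLSI broth dilution methods (M7-A8, M100-S20, M26-A) against a polymyxin-resistant clinical isolate and reported in mg/L. Compounds were tested as trifluoroacetate salts, with one exception tested as the sulfate.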

[3] = test system: PA-1646, polymyxin-resistant clinical isolate of Pseudomonas aeruginosa; format: cell-based; settings: PA-1646, polymyxin-resistant clinical isolate of
Summary of the method: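 Broth dilution MIC and bactericidal (MBC) testing per CLSI methods (M7-A8, M100-S20, M26-A) against polymyxin-resistant clinical P. aeruginosa isolate PA-1646. Compounds tested as trifluoroacetate salts, one as sulfate salt; values in mg/L.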

[4] = test system: EC-1, mouse virulent strain of Escherichia coli; format: cell-based; settings: E. coli EC-1; overnight incubation, lower of duplicate values; trifluoroacetate salt (Example 1 and PMB sulfate)
Summary of the method: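 Compounds were tested mostly as trifluoroacetate salts. Duplicate CLSI broth-dilution MICs were read visually after overnight incubation over 2-fold dilutions, with the lower of duplicates within 2-fold taken. QC organisms and reference drugs were included in each run.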

[5] = test system: PA-1646, polymyxin-resistant clinical isolate of Pseudomonas aeruginosa; format: cell-based; settings: PA-1646, polymyxin-resistant clinical isolate of; remark: listed apart in the source
Summary of the method: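 Broth dilution MIC per CLSI with 2-fold concentration steps, read visually after overnight incubation as lowest concentration inhibiting growth; duplicates within 2-fold, lower value reported, with QC strains and reference compounds. Compounds tested as trifluoroacetate salts, polymyxin B as sulfate.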

[6] = test system: AB-1649, polymyxin-resistant clinical isolate of Acinetobacter baumannii; format: cell-based; settings: AB-1649, polymyxin-resistant clinical isolate of; remark: listed apart in the source
Summary of the method: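 Broth dilution MIC per CLSI against the polymyxin-resistant A. baumannii isolate, 2-fold dilutions, overnight incubation, visual read of lowest concentration inhibiting growth. Run in duplicate, lower value reported when within 2-fold; MBC per CLSI M26-A guideline.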

[7] = test system: Pseudomonas aeruginosa strain PA01; format: cell-based; settings: strain
Summary of the method: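 CLSI broth dilution against P. aeruginosa PA01 with two-fold concentration steps and overnight incubation; MIC is lowest concentration visibly inhibiting growth versus drug-free control, in mg/L. Compounds tested as trifluoroacetate salts, in duplicate, lower value reported if within 2-fold; control organisms and reference compounds included.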

[8] = test system: AB-3167, clinical isolate of Acinetobacter baumannii; format: cell-based; settings: AB-3167, clinical isolate of
Summary of the method: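 Broth dilution MIC per CLSI (M7-A8, M100-S20, M26-A for bactericidal), 2-fold dilution series, overnight incubation, visual read of lowest concentration inhibiting growth versus drug-free control. Duplicates run; lower value reported if within 2-fold, otherwise repeated. Compounds tested as trifluoroacetate salts; QC strains and reference compounds required in range.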

Row | Structure (SMILES) | CC50 at 24 h [1] [µM] | AB-1649 MBC [2] [µg/mL] | PA-1646 MBC [3] [µg/mL] | EC-1 MIC [4] [µg/mL] | PA-1646 MIC [5] [µg/mL] | AB-1649 MIC [6] [µg/mL] | PA01 MIC [7] [µg/mL] | AB-3167 MIC [8] [µg/mL]
1 | CC(C)C[C@@H]1NC(=O)[C@@H](Cc2ccccc2)NC(=O)[C@H](CCN)NC(=O)[C@@H](NC(=O)[C@H](CN)NC(=O)[C@@H](NC(=O)[C@H](CCN)NC(=O)c2cccc(-c3ccc(C#N)cn3)c2)[C@@H](C)O)CCNC(=O)[C@H]([C@@H](C)O)NC(=O)[C@H](CCN)NC(=O)[C@H](CCN)NC1=O [Example 26] (X19-[Dab]T[Dap][Dab][Dab][dF]L[Dab][Dab]T; lactam 4-C) | 77 | 4 | 8 | 0.25 | 4 | 4 | 1 | 1
2 | CC(C)C[C@@H]1NC(=O)[C@@H](Cc2ccccc2)NC(=O)[C@H](CCN)NC(=O)[C@@H](NC(=O)[C@H](CN)NC(=O)[C@@H](NC(=O)[C@H](CCN)NC(=O)c2ccc(-c3ccccc3)nc2)[C@@H](C)O)CCNC(=O)[C@H]([C@@H](C)O)NC(=O)[C@H](CCN)NC(=O)[C@H](CCN)NC1=O [Example 27] (X16-[Dab]T[Dap][Dab][Dab][dF]L[Dab][Dab]T; lactam 4-C) | 73 | 4 | 4 | 0.125 | 2 | 4 | 0.5 | 0.25
3 | CC(C)C[C@@H]1NC(=O)[C@@H](Cc2ccccc2)NC(=O)[C@H](CCN)NC(=O)[C@@H](NC(=O)[C@H](CN)NC(=O)[C@@H](NC(=O)[C@H](CCN)NC(=O)c2ccc(Cl)c(-c3ccccn3)c2)[C@@H](C)O)CCNC(=O)[C@H]([C@@H](C)O)NC(=O)[C@H](CCN)NC(=O)[C@H](CCN)NC1=O [Example 28] (X25-[Dab]T[Dap][Dab][Dab][dF]L[Dab][Dab]T; lactam 4-C) | 72 | 4 | 16 | 0.25 | 4 | 4 | 1 | 0.25
4 | COc1cccc(-c2cc(C(=O)N[C@@H](CCN)C(=O)N[C@H](C(=O)N[C@@H](CN)C(=O)N[C@H]3CCNC(=O)[C@H]([C@@H](C)O)NC(=O)[C@H](CCN)NC(=O)[C@H](CCN)NC(=O)[C@H](CC(C)C)NC(=O)[C@@H](Cc4ccccc4)NC(=O)[C@H](CCN)NC3=O)[C@@H](C)O)ccn2)c1 [Example 29] (X22-[Dab]T[Dap][Dab][Dab][dF]L[Dab][Dab]T; lactam 4-C) | 70 | 4 | 32 | 0.5 | 4 | 4 | 1 | 0.5
5 | CC(C)C[C@@H]1NC(=O)[C@@H](Cc2ccccc2)NC(=O)[C@H](CCN)NC(=O)[C@@H](NC(=O)[C@H](CN)NC(=O)[C@@H](NC(=O)[C@H](CCN)NC(=O)c2cncc(-c3ccccc3)c2)[C@@H](C)O)CCNC(=O)[C@H]([C@@H](C)O)NC(=O)[C@H](CCN)NC(=O)[C@H](CCN)NC1=O [Example 30] (X27-[Dab]T[Dap][Dab][Dab][dF]L[Dab][Dab]T; lactam 4-C) | 56 | 4 | 4 | 0.125 | 2 | 4 | 0.5 | 0.25
6 | CC(C)C[C@@H]1NC(=O)[C@@H](Cc2ccccc2)NC(=O)[C@H](CCN)NC(=O)[C@@H](NC(=O)[C@H](CN)NC(=O)[C@@H](NC(=O)[C@H](CCN)NC(=O)c2ccnc(-c3ccc(C#N)c(F)c3)c2)[C@@H](C)O)CCNC(=O)[C@H]([C@@H](C)O)NC(=O)[C@H](CCN)NC(=O)[C@H](CCN)NC1=O [Example 31] (X2-[Dab]T[Dap][Dab][Dab][dF]L[Dab][Dab]T; lactam 4-C) | 55 | 16 | 8 | 0.5 | 4 | 4 | 1 | 0.5
7 | CC(C)C[C@@H]1NC(=O)[C@@H](Cc2ccccc2)NC(=O)[C@H](CCN)NC(=O)[C@@H](NC(=O)[C@H](CN)NC(=O)[C@@H](NC(=O)[C@H](CCN)NC(=O)c2cccc(-c3ccc(C#N)cc3)c2)[C@@H](C)O)CCNC(=O)[C@H]([C@@H](C)O)NC(=O)[C@H](CCN)NC(=O)[C@H](CCN)NC1=O [Example 32] (X17-[Dab]T[Dap][Dab][Dab][dF]L[Dab][Dab]T; lactam 4-C) | 33 | 4 | 4 | 0.25 | 2 | 4 | 0.5 | 0.5
8 | CC(C)C[C@@H]1NC(=O)[C@@H](Cc2ccccc2)NC(=O)[C@H](CCN)NC(=O)[C@@H](NC(=O)[C@H](CN)NC(=O)[C@@H](NC(=O)[C@H](CCN)NC(=O)c2ccc(F)c(-c3ccc(C#N)cc3)c2)[C@@H](C)O)CCNC(=O)[C@H]([C@@H](C)O)NC(=O)[C@H](CCN)NC(=O)[C@H](CCN)NC1=O [Example 33] (X13-[Dab]T[Dap][Dab][Dab][dF]L[Dab][Dab]T; lactam 4-C) | 30 | 4 | 8 | 0.5 | 2 | 4 | 2 | 1
9 | CC(C)C[C@@H]1NC(=O)[C@@H](Cc2ccccc2)NC(=O)[C@H](CCN)NC(=O)[C@@H](NC(=O)[C@H](CN)NC(=O)[C@@H](NC(=O)[C@H](CCN)NC(=O)c2cc(-c3ccccc3)ccc2F)[C@@H](C)O)CCNC(=O)[C@H]([C@@H](C)O)NC(=O)[C@H](CCN)NC(=O)[C@H](CCN)NC1=O [Example 34] (X8-[Dab]T[Dap][Dab][Dab][dF]L[Dab][Dab]T; lactam 4-C) | 28 | 16 | 8 | 0.125 | 2 | 16 | 0.5 | 0.25
10 | COc1cc(C(=O)N[C@@H](CCN)C(=O)N[C@H](C(=O)N[C@@H](CN)C(=O)N[C@H]2CCNC(=O)[C@H]([C@@H](C)O)NC(=O)[C@H](CCN)NC(=O)[C@H](CCN)NC(=O)[C@H](CC(C)C)NC(=O)[C@@H](Cc3ccccc3)NC(=O)[C@H](CCN)NC2=O)[C@@H](C)O)cc(-c2ccccc2)n1 [Example 35] (X37-[Dab]T[Dap][Dab][Dab][dF]L[Dab][Dab]T; lactam 4-C) | 24 | 4 | 1 | 0.25 | 1 | 4 | 0.5 | 0.5
11 | COc1ccc(-c2ccccc2)cc1C(=O)N[C@@H](CCN)C(=O)N[C@H](C(=O)N[C@@H](CN)C(=O)N[C@H]1CCNC(=O)[C@H]([C@@H](C)O)NC(=O)[C@H](CCN)NC(=O)[C@H](CCN)NC(=O)[C@H](CC(C)C)NC(=O)[C@@H](Cc2ccccc2)NC(=O)[C@H](CCN)NC1=O)[C@@H](C)O [Example 36] (X24-[Dab]T[Dap][Dab][Dab][dF]L[Dab][Dab]T; lactam 4-C) | 19 | 4 | 2 | 0.5 | 2 | 4 | 0.5 | 0.25
